Patent publication US20050142169A1, “Palatability enhanced composition and method for animal consumption” (priority 2003, published 2005)

Test system: cats
Test: two-bowl preference test, Example 7 (Feline w/d)
Format: in vivo, cat
Conditions: dry wt. of kibble
Excerpt: Finally, a commercial dry palatant enhancer (1.4% dry weight basis) was topically applied to the dry kibbles to complete the test composition.

[1] = Exp. No. 1, second set of experiments, 5 ppm
[2] = Exp. No. 2, second set of experiments, 20 ppm

## CCC1OC(C)=C(O)C1=O (stereo not shown) [5-methyl-2-ethyl-4-hydroxy-3(2H)-furanone]
Exp. No. 1, 5 ppm
  Intake Ratio: 0.8254
  Preference (%) control composition: 12.0%
  Preference (%) test composition: 88.0%
  Status (vs. control): Win
[1]
  Intake Ratio: 0.7476
  Preference (%) control composition: 21.7%
  Preference (%) test composition: 78.3%
  Status (vs. control): Win
Exp. No. 2, 20 ppm
  Intake Ratio: 0.9731
  Preference (%) control composition: 0.0%
  Preference (%) test composition: 100.0%
  Status (vs. control): Win
[2]
  Intake Ratio: 0.8679
  Preference (%) control composition: 8.0%
  Preference (%) test composition: 92.0%
  Status (vs. control): Win
